# Assay results: the supplement of paper PMC10627819
# How the values were obtained:
# S. pneumoniae D39V = assay: fitness (endpoint OD595 vs no drug) (fraction); higher = more growth
# In short: (§1)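 Fitness compares growth at the stationary-phase transition with the robust mean of no-drug control wells, as a ratio of optical densities. The ratio is capped at 1. Wells of 384-well plates held 30 µl, or 55 µl for S. pneumoniae, inoculated at OD595 0.01. Readings at OD595 every 30 min for 14 h at 37 °C were corrected against the first reading.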
# S. aureus DSM 20231 = assay: as above
# In short: as §1
# 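Note: OD595 on entry to stationary phase over no-drug wells; at most 1.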
smiles,measurement,setting,value
CO[C@@]12[C@H](COC(N)=O)C3=C(C(=O)C(C)=C(N)C3=O)N1C[C@@H]1N[C@@H]12 [Mitomycin C] + CO[C@H]1/C=C/O[C@@]2(C)Oc3c(C)c(O)c4c(O)c(c(/C=N/N5CCN(C)CC5)c(O)c4c3C2=O)NC(=O)/C(C)=C\C=C\[C@H](C)[C@H](O)[C@@H](C)[C@@H](O)[C@@H](C)[C@H](OC(C)=O)[C@@H]1C [Rifampicin],fitness,"S. pneumoniae D39V; first compound 0.001075 µg/mL, partner 0.05 µg/mL",0.779
same,fitness,"S. pneumoniae D39V; first compound 0.001075 µg/mL, partner 0.1 µg/mL",0.458
same,fitness,"S. pneumoniae D39V; first compound 0.001075 µg/mL, partner 0.2 µg/mL",0.18
same,fitness,"S. pneumoniae D39V; first compound 0.002 µg/mL, partner 0.025 µg/mL, one replicate",0.804
same,fitness,"S. pneumoniae D39V; first compound 0.002 µg/mL, partner 0.05 µg/mL",0.647
same,fitness,"S. pneumoniae D39V; first compound 0.002 µg/mL, partner 0.1 µg/mL",0.289
same,fitness,"S. pneumoniae D39V; first compound 0.002 µg/mL, partner 0.2 µg/mL, one replicate",0
same,fitness,"S. pneumoniae D39V; first compound 0.00215 µg/mL, partner 0.05 µg/mL",0.664
same,fitness,"S. pneumoniae D39V; first compound 0.00215 µg/mL, partner 0.1 µg/mL",0.307
same,fitness,"S. pneumoniae D39V; first compound 0.00215 µg/mL, partner 0.2 µg/mL",0.169
same,fitness,"S. pneumoniae D39V; first compound 0.004 µg/mL, partner 0.025 µg/mL, one replicate",0.698
same,fitness,"S. pneumoniae D39V; first compound 0.004 µg/mL, partner 0.05 µg/mL",0.558
same,fitness,"S. pneumoniae D39V; first compound 0.004 µg/mL, partner 0.1 µg/mL",0.308
same,fitness,"S. pneumoniae D39V; first compound 0.004 µg/mL, partner 0.2 µg/mL, one replicate",0
same,fitness,"S. pneumoniae D39V; first compound 0.0043 µg/mL, partner 0.05 µg/mL",0.517
same,fitness,"S. pneumoniae D39V; first compound 0.0043 µg/mL, partner 0.1 µg/mL",0.288
same,fitness,"S. pneumoniae D39V; first compound 0.0043 µg/mL, partner 0.2 µg/mL",0.129
same,fitness,"S. pneumoniae D39V; first compound 0.008 µg/mL, partner 0.025 µg/mL, one replicate",0.492
same,fitness,"S. pneumoniae D39V; first compound 0.008 µg/mL, partner 0.1 µg/mL",0.288
same,fitness,"S. pneumoniae D39V; first compound 0.008 µg/mL, partner 0.2 µg/mL, one replicate",0
CO[C@@]12[C@H](COC(N)=O)C3=C(C(=O)C(C)=C(N)C3=O)N1C[C@@H]1N[C@@H]12 [Mitomycin C] + COc1cc(Cc2cnc(N)nc2N)cc(OC)c1OC [Trimethoprim],fitness,"S. aureus DSM 20231; first compound 0.0156 µg/mL, partner 0.125 µg/mL",0.6
same,fitness,"S. aureus DSM 20231; first compound 0.0156 µg/mL, partner 0.25 µg/mL",0.506
same,fitness,"S. aureus DSM 20231; first compound 0.0156 µg/mL, partner 0.5 µg/mL",0.0394
same,fitness,"S. aureus DSM 20231; first compound 0.0156 µg/mL, partner 1 µg/mL",0.0198
same,fitness,"S. aureus DSM 20231; first compound 0.0312 µg/mL, partner 0.125 µg/mL",0.604
same,fitness,"S. aureus DSM 20231; first compound 0.0312 µg/mL, partner 0.25 µg/mL",0.485
same,fitness,"S. aureus DSM 20231; first compound 0.0312 µg/mL, partner 0.5 µg/mL",0.0541
same,fitness,"S. aureus DSM 20231; first compound 0.0312 µg/mL, partner 1 µg/mL",0.0233
same,fitness,"S. aureus DSM 20231; first compound 0.0625 µg/mL, partner 0.125 µg/mL",0.491
same,fitness,"S. aureus DSM 20231; first compound 0.0625 µg/mL, partner 0.25 µg/mL",0.279
same,fitness,"S. aureus DSM 20231; first compound 0.0625 µg/mL, partner 0.5 µg/mL",0.0513
same,fitness,"S. aureus DSM 20231; first compound 0.0625 µg/mL, partner 1 µg/mL",0.0116
CO[C@@]12[C@H](COC(N)=O)C3=C(C(=O)C(C)=C(N)C3=O)N1C[C@@H]1N[C@@H]12 [Mitomycin C] + O=C1CN(/N=C/c2ccc([N+](=O)[O-])o2)C(=O)N1 [Nitrofurantoin],fitness,"S. pneumoniae D39V; first compound 0.001075 µg/mL, partner 2 µg/mL",0.889
same,fitness,"S. pneumoniae D39V; first compound 0.001075 µg/mL, partner 4 µg/mL",0.866
same,fitness,"S. pneumoniae D39V; first compound 0.001075 µg/mL, partner 8 µg/mL",0.803
same,fitness,"S. pneumoniae D39V; first compound 0.002 µg/mL, partner 1.285 µg/mL",0.896
same,fitness,"S. pneumoniae D39V; first compound 0.002 µg/mL, partner 2.57 µg/mL",0.839
same,fitness,"S. pneumoniae D39V; first compound 0.002 µg/mL, partner 5.14 µg/mL, one replicate",0.723
same,fitness,"S. pneumoniae D39V; first compound 0.00215 µg/mL, partner 2 µg/mL",0.883
same,fitness,"S. pneumoniae D39V; first compound 0.00215 µg/mL, partner 4 µg/mL",0.835
same,fitness,"S. pneumoniae D39V; first compound 0.00215 µg/mL, partner 8 µg/mL",0.755
same,fitness,"S. pneumoniae D39V; first compound 0.004 µg/mL, partner 1.285 µg/mL",0.74
same,fitness,"S. pneumoniae D39V; first compound 0.004 µg/mL, partner 2.57 µg/mL",0.765
same,fitness,"S. pneumoniae D39V; first compound 0.004 µg/mL, partner 5.14 µg/mL, one replicate",0.613
same,fitness,"S. pneumoniae D39V; first compound 0.0043 µg/mL, partner 2 µg/mL",0.759
same,fitness,"S. pneumoniae D39V; first compound 0.0043 µg/mL, partner 4 µg/mL",0.679
same,fitness,"S. pneumoniae D39V; first compound 0.0043 µg/mL, partner 8 µg/mL",0.554
same,fitness,"S. pneumoniae D39V; first compound 0.008 µg/mL, partner 1.285 µg/mL",0.588
same,fitness,"S. pneumoniae D39V; first compound 0.008 µg/mL, partner 2.57 µg/mL",0.535
same,fitness,"S. pneumoniae D39V; first compound 0.008 µg/mL, partner 5.14 µg/mL, one replicate",0.419
